Patent US9297017B2, “Methods and compositions for targeted protein degradation” (University of Washington, priority 2010, dated 2016)
Values joined by “and” are separate entries in the source; they are usually repeats but may differ in a detail not shown here. Equal values may be shown once. Read-outs that look alike come from different tables or passages of the source.

What was measured:
COI1/JAZ1 complex = biological target: T1, COI1/JAZ1 complex (Arabidopsis thaliana, UniProt O04197+Q9LMA8); test: Saturation radioligand binding of 3H-coronatine to COI1/ASK1 in the presence of JAZ1
T1 construct: Full-length Arabidopsis thaliana COI1 and ASK1 were co-expressed; Full-length JAZ substrate proteins were expressed as 6×His-fusion proteins in Escherichia coli; GST (cleaved yes); 6xHis; made in house; host or cells: Hi5 insect cells (COI1/ASK1); Escherichia coli (JAZ1)
T1 sequence (O04197 1-592): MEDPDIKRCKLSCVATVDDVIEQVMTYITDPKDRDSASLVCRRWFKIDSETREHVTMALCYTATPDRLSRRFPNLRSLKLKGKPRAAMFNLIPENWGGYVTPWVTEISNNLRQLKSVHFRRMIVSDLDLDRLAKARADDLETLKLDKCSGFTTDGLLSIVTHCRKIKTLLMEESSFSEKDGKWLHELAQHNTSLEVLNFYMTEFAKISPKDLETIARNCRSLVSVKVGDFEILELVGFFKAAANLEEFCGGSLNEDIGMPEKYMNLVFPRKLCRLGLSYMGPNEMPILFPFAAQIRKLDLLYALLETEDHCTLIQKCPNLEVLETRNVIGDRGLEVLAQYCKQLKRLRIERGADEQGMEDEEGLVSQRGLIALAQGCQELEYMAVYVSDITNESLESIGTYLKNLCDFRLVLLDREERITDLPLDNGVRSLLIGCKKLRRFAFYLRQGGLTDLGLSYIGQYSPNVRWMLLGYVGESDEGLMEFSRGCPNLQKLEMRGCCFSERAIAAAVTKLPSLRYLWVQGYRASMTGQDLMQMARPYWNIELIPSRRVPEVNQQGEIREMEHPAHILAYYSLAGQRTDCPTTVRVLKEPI
T1 sequence (Q39255 1-160 partner): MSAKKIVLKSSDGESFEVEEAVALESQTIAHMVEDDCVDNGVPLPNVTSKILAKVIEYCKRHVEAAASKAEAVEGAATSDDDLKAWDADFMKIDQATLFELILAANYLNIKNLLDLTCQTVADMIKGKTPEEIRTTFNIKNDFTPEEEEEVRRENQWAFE
T1 sequence (Q9LMA8 1-253): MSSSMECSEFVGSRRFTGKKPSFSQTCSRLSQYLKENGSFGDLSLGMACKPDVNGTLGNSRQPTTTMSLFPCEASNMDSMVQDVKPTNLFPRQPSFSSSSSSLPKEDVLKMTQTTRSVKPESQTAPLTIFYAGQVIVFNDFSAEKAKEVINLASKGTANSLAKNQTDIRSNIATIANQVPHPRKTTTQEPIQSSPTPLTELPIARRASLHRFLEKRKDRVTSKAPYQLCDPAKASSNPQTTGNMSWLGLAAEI
From the text: (§1) (^3H)-labeled coronatine was synthesized by Amersham. Full-length Arabidopsis thaliana COI1 and ASK1 were co-expressed as a glutathione S-transferase (GST) fusion protein and an untagged protein, respectively, in Hi5 suspension insect cells. The COI1/ASK1 complex was isolated from the soluble cell lysate by glutathione affinity chromatography. After on-column tag cleavage by tobacco etch virus protease, the complex was further purified by anion exchange and gel filtration chromatography and concentrated by ultrafiltration to 12-18 mg ml^−1. Full-length JAZ substrate proteins were expressed as 6×His-fusion proteins in Escherichia coli and purified on Ni-NTA resin with subsequent dialysis into 20 mM Tris-HCl, pH 8.0, 200 mM NaCl, and 10% glycerol.
(§2) Radioligand binding was assayed on purified proteins, with 2 mg COI1/ASK1 complex and JAZ proteins at a 1:3 molar ratio. […] Nonspecific binding was determined in the presence of […] coronatine. Competition binding experiments were conducted with serial dilutions of JA-Ile in the presence of 100 nM ^3H coronatine with nonspecific binding determined in the presence of […] coronatine. Total binding was determined in the presence of vehicle only. Two-point binding experiments were performed in the presence of 100 nM or 300 nM ^3H-coronatine with nonspecific binding determined in the presence of 300 mM coronatine. […]

COI1/JAZ1 co-receptor = biological target: T2, COI1/JAZ1 co-receptor (Arabidopsis thaliana, UniProt O04197+Q9LMA8); test: Ligand-binding based reconstitution assay (inositol phosphate rescue) with dialyzed COI1/ASK1 and JAZ1
T2 construct: Full-length Arabidopsis thaliana COI1 and ASK1 were co-expressed; Full-length JAZ substrate proteins were expressed as 6×His-fusion proteins in Escherichia coli; GST (cleaved yes); 6xHis; made in house; host or cells: Hi5 insect cells (COI1/ASK1); Escherichia coli (JAZ1)
T2 sequence (O04197 1-592): T1 sequence (O04197 1-592)
T2 sequence (Q39255 1-160 partner): T1 sequence (Q39255 1-160 partner)
T2 sequence (Q9LMA8 1-253): T1 sequence (Q9LMA8 1-253)
Description: Radioligand binding was assayed on purified proteins, with 2 mg COI1/ASK1 complex and JAZ proteins at a 1:3 molar ratio. Reactions were prepared in […] final volume and in a binding buffer containing 20 mM Tris-HCl 200 mM NaCl, and 10% glycerol. Saturation binding experiments were conducted with serial dilutions of 3H-coronatine in binding buffer. Nonspecific binding was determined in the presence of […] coronatine. Competition binding experiments were conducted with serial dilutions of JA-Ile in the presence of 100 nM ^3H coronatine with nonspecific binding determined in the presence of […] coronatine. Total binding was determined in the presence of vehicle only. Two-point binding experiments were performed in the presence of 100 nM or 300 nM ^3H-coronatine with nonspecific binding determined in the presence of […] coronatine. Following incubation with mixing at 4° C., all samples were collected with a cell harvester (Brandel, Gaithersburg, Md.) on polyethyleneimine (Sigma)-treated filters. Samples were incubated in liquid scintillation fluid for >1 hour before counting with a Packard Tri-Carb 2200 CA liquid scintillation analyzer (Packard Instrument Co.). Saturation binding experiments were analyzed by nonlinear regression, competition binding experiments by nonlinear regression with Ki calculation as described previously (Cheng 1973), and concentration-response data by sigmoidal dose-response curve fitting, all using GraphPad Prism version 4.00 for MacOSX.
To assess the functional role of Ins(1,2,4,5,6)P5 in the COI1/JAZ1 co-receptor, a protocol was developed for stripping the co-purified InsP5 from COI1 without denaturing the protein. Briefly, proteins were mixed with 10% glycerol and incubated in 2 M ammonium phosphate, 100 mM Bis-Tris propane, pH 7.0, 200 mM NaCl, and 10% glycerol at 4° C. for >24 hours with a minimum of 3× buffer changes at 100× sample volume. Samples were then transferred to 20 mM Tris-HCl, pH 8.0, 200 mM NaCl, and 10% glycerol at 4° C. for >24 hours with a minimum of three buffer changes at 100× sample volume. Inositol phosphate rescue experiments were conducted according to the radioligand binding assays described above in the presence of 300 nM ^3H-coronatine with nonspecific binding determined in the presence of 300 μM coronatine.
The resulting COI1/ASK1 complex was tested in a ligand-binding based reconstitution assay. […] From this reconstitution result, it was concluded that Ins(1,2,4,5,6)P5 binding is crucial for the jasmonate coreceptor to perceive the hormone with high sensitivity.

full-length JAZ1 = biological target: T3, full-length JAZ1 (Arabidopsis thaliana, UniProt Q9LMA8); test: Radioligand binding of 3H-coronatine to full-length JAZ1 alone
T3 construct: 6xHis; made in house; host or cells: Escherichia coli
T3 sequence (Q9LMA8 1-253): T1 sequence (Q9LMA8 1-253)
From the text: as §1, §2

CC[C@H]1C=C(C(=O)N[C@@]2(C(=O)O)C[C@@H]2CC)[C@H]2CCC(=O)[C@H]2C1 [coronatine]
Binding affinity for COI1/JAZ1 complex (COI1/JAZ1 complex): high affinity | Kd (COI1/JAZ1 complex; COI1/JAZ1 complex, listed as 3H-coronatine): 68 nM and 48 nM | Kd (COI1/JAZ1 co-receptor; 1 μM Ins(1,2,4,5,6)P5, read-out: Kd, saturation binding of 3H-coronatine to dialyzed COI1 in the presence of InsP5): 30 nM | Kd (COI1/JAZ1 co-receptor; 1 μM InsP6, read-out: Kd, saturation binding of 3H-coronatine to dialyzed COI1 in the presence of InsP6): 37 nM | Binding affinity for JAZ1 alone (full-length JAZ1): minimal binding affinity | Binding affinity for JAZ1 alone (full-length JAZ1; listed as 3H-coronatine): no appreciable binding affinity
